pIC50: −log10 of the molar value.

This test addresses T1, bromodomain BRD4 (44-168), BRD4 (333-460), and BRD4 (1-477 or 44-460) (Homo sapiens, UniProt O60885).
T1 construct: BRD4(44-168), BRD4(333-460), BRD4(44-460), BRD4(1-477), O60885-1; fused on or other part: N-terminal BirA biotinylation motif, biotinylated; The TVMV-cleavable His6 tag is removed, except in some BRD4(44-460) runs detected with anti-His terbium cryptate
The experiment in a line: Time Resolved Fluorescence Resonance Energy Transfer (TR-FRET) binding assay. The settings on record: one of the FRET assays described.

As usually defined, the pIC50 is −log10 of the IC50, conventionally taken in molar units. Regarding `COC(=O)c1ccc2c3c(C(N)=O)cc(-c4c(C)noc4C)cc3n(Cc3ccccc3)c2c1` [Example 183, Methyl 9-benzyl-5-carbamoyl-7-(3,5-dimethyl-4-isoxazolyl)-9H-carbazole-2-carboxylate], the negative logarithm of the IC50 (pIC50) was more than 7.30. Next, `Cc1noc(C)c1-c1cc(C(N)=O)c2c3cc(C(=O)N4CCOCC4(C)C)ccc3n(Cc3ccccc3)c2c1` [Example 49]: more than 5.12.

In turn, `Cc1noc(C)c1-c1cc(C(N)=O)c2c3ccc(C(=O)N4CCOCC4)cc3n(Cc3ccccc3)c2c1` [Example 188, 9-Benzyl-2-(3,5-dimethyl-4-isoxazolyl)-7-(morpholine-4-carbonyl)-9H-carbazole-4-carboxamide] had a pIC50 of more than 7.30. Molecule `Cc1noc(C)c1-c1cc(C(N)=O)c2c3ccc(C(=O)c4cccc(F)c4)cc3n(Cc3ccccc3)c2c1` [Example 190, 9-Benzyl-2-(3,5-dimethyl-4-isoxazolyl)-7-(3-fluorobenzoyl)-9H-carbazole-4-carboxamide] gave a negative logarithm of the IC50 (pIC50) of more than 6.30. For the molecule `COc1cccc(Cn2c3ccc(C(=O)N4CC(C)OC(C)C4)cc3c3ccc(-c4c(C)noc4C)cc32)c1` (centres unmarked) [Example 14], the pIC50 was more than 6.30.

On to `Cc1noc(C)c1-c1cc(C(N)=O)c2c3ccc(C(C)(C)O)c(F)c3n(C(CCC(F)(F)F)c3ccccc3)c2c1` (single isomer, unassigned) [Example 230, 2-(dimethyl-1,2-oxazol-4-yl)-8-fluoro-7-(2-hydroxypropan-2-yl)-9-[4,4,4-trifluoro-1-phenylbutyl]-9H-carbazole-4-carboxamide], for which the pIC50 is more than 7.30. Molecule `Cc1noc(C)c1-c1cc(C(N)=O)c2c3cc(C(=O)N4CC(F)(F)C4)ccc3n(C(C)c3ccccc3)c2c1` (single isomer, unassigned) [Example 97, 6-((3,3-difluoro-1-azetidinyl)carbonyl)-2-(3,5-dimethyl-4-isoxazolyl)-9-(1-phenylethyl)-9H-carbazole-4-carboxamide] had a pIC50 of more than 7.30. Next, `COC(=O)c1ccc2c3c(C#N)cc(-c4c(C)noc4C)cc3n(Cc3ccccc3)c2c1` [Example 182, Methyl 9-benzyl-5-cyano-7-(3,5-dimethyl-4-isoxazolyl)-9H-carbazole-2-carboxylate]: more than 5.12. Next, `Cc1noc(C)c1-c1cc(C(N)=O)c2c3ccc(C(=O)N4CCOCC4)cc3n(C(c3ccccc3)c3ccccc3)c2c1` [Example 196, 2-(3,5-Dimethyl-4-isoxazolyl)-9-(diphenylmethyl)-7-(4-morpholinylcarbonyl)-9H-carbazole-4-carboxamide]: more than 7.30.

Take `Cc1noc(C)c1-c1cc(C(N)=O)c2c3cc(C(=O)N4CC(C)OC(C)C4)ccc3n(Cc3cccc(C#N)c3)c2c1` (centres unmarked) [Example 44]: the negative logarithm of the IC50 (pIC50) was more than 7.30.

The molecule `Cc1noc(C)c1-c1cc(C(N)=O)c2c3cc(NCCO)ccc3n(Cc3ccccc3)c2c1` [Example 137, 9-benzyl-2-(3,5-dimethyl-4-isoxazolyl)-6-((2-hydroxyethyl)amino)-9H-carbazole-4-carboxamide] showed a pIC50 of more than 7.30. The molecule `Cc1noc(C)c1-c1cc(C(N)=O)c2c3cc(C(=O)N4CC[C@@H](F)C4)ccc3n(Cc3ccccc3)c2c1` [Example 60] gave a negative-log IC50 (pIC50) of more than 7.30. On to `Cc1noc(C)c1-c1cc(C(N)=O)c2c3cc(C(=O)N4CCC(F)C4)ccc3n(C(C)c3ccccc3)c2c1` (centres unmarked) [Example 84], for which the pIC50 is more than 7.30. Next, `COC(C)(C)c1ccc2c3c(C(N)=O)cc(-c4c(C)noc4C)cc3n([C@H](c3ccccc3)C3CCOCC3)c2c1` [Example 228, 2-(Dimethyl-1,2-oxazol-4-yl)-7-(2-methoxypropan-2-yl)-9-[(S)-oxan-4-yl(phenyl)methyl]-9H-carbazole-4-carboxamide]: more than 7.30.

These data come from patent US9492460B2, “Carbazole compounds useful as bromodomain inhibitors” (Bristol-Myers Squibb Company, priority 2013, dated 2016).
